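96-well plates; 48 h exposure; 5 concentrations. Endpoints by linear interpolation between flanking doses. Not reached: highest tested concentration assigned. GI50 is the concentration that inhibits growth by half. TGI denotes the concentration required for complete inhibition of growth.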
How the values were obtained:
Assay in all cases: growth of human tumour cells (NCI), 48 h
[1] = system: IGROV1 ovarian
[2] = system: OVCAR-3 ovarian
[3] = system: K-562 leukemia
[4] = system: DU-145 prostate
[5] = system: MOLT-4 leukemia
[6] = system: NCI/ADR-RES ovarian
[7] = system: RPMI-8226 leukemia
[8] = system: CCRF-CEM leukemia
[9] = system: LOX IMVI melanoma
[10] = system: NCI-H460 lung

SMILES | TGI [1] | TGI [2] | TGI [3] | TGI [4] | TGI [5] | TGI [6] | TGI [7] | TGI [8] | TGI [9] | TGI [10] | GI50 [1] | GI50 [2] | GI50 [3] | GI50 [5] | GI50 [6] | GI50 [7] | GI50 [8] | GI50 [9] | GI50 [10]
NCCCCNCCCNC(=O)CNC(=O)CC(O)C(N)CCCC(NC(=O)C(CN)NC(=O)C(O)CNC(=O)CC(N)c1ccc(O)cc1)C(=O)O (stereo unspecified) | > 10 µM | > 10 µM | > 10 µM | > 10 µM | > 10 µM | > 10 µM | > 10 µM | > 10 µM | > 10 µM | > 10 µM |  |  |  |  |  |  |  |  | 
NC(Cc1[nH]nc2ccccc12)C(=O)O (stereo unspecified) | > 100 µM | > 100 µM | > 100 µM | > 100 µM | > 100 µM | > 100 µM | > 100 µM | > 100 µM | > 100 µM | > 100 µM |  |  |  |  |  |  |  |  | 
Nc1c(S(N)(=O)=O)cc(S(N)(=O)=O)cc1S(N)(=O)=O | > 100 µM | > 100 µM | > 100 µM | > 100 µM | > 100 µM | > 100 µM | > 100 µM |  | > 100 µM | > 100 µM |  |  |  |  |  |  |  |  | 
COc1ccc2c(c1)-c1c(c3cc(OC)ccc3n1CCN(C)C)CC2 | 25.9 µM | 28.1 µM | 26.5 µM | 26.7 µM | 33.8 µM | 32 µM | 31.2 µM | 26.4 µM |  | 25.9 µM |  |  |  |  |  |  |  |  | 
COC(=O)C1=C(C(=O)OC)SC(=C2SC3=C(SC(=C4SCCS4)S3)S2)S1 | > 100 µM |  | > 100 µM | > 100 µM | > 100 µM | > 100 µM | > 100 µM | > 100 µM | > 100 µM |  |  |  |  |  |  |  |  |  | 
CC1(C)N=C(N)N=C(N)N1c1cccc(OCc2cccc(N)c2)c1 | > 100 µM | > 100 µM | > 100 µM | > 100 µM | > 100 µM | > 100 µM | > 100 µM | > 100 µM | > 100 µM | > 100 µM |  |  |  |  |  |  |  |  | 
COc1cc2[nH]c(=O)c3cc(-c4ccccc4)cc4c(Cl)nc(c1OC)c2c43 | > 91 µM | > 100 µM | > 100 µM | > 100 µM | > 44.7 µM | > 38.3 µM | > 100 µM | > 67 µM | > 73.6 µM | > 82.9 µM |  |  |  |  |  |  |  |  | 
Oc1c(OCc2nnc(CCCCCCCCc3nnc(COc4ccc5ccccc5c4O)o3)o2)ccc2ccccc12 |  |  | > 100 µM | > 100 µM | > 100 µM | > 100 µM | > 100 µM |  |  | > 100 µM |  |  |  |  |  |  |  |  | 
c1c(N2CCOCC2)ssc1=[N+]1CCOCC1 | > 100 µM |  | > 100 µM |  | > 100 µM |  | > 100 µM | > 100 µM | > 100 µM | > 100 µM |  |  |  |  |  |  |  |  | 
CC(=O)OC1CC2(O)C(CCC3(C)C(c4ccc(=O)oc4)CCC32O)C2(C)C1=CC(O)C1OC12 (stereo unspecified) | 0.753 µM | 0.0697 µM | 0.381 µM |  | 0.0366 µM | 0.284 µM | 0.4 µM | 0.487 µM | 1.02 µM | 0.0466 µM |  |  |  |  |  |  |  |  | 
O=C1/C(=C/c2ccc(Cl)cc2)CCCc2ccc(F)cc21 | 68.3 µM | 51.4 µM | > 100 µM |  | > 100 µM | 73.5 µM | 28.7 µM | 61 µM | 31.8 µM | 54 µM | 14.6 µM | 16.9 µM | 11.1 µM | 12.1 µM | 26.6 µM | 4.36 µM | 11.5 µM | 14.4 µM | 20.1 µM
C=C1C[C@@H]2CC[C@@]34C[C@H]5O[C@H]6[C@@H](O3)[C@H]3O[C@H](CC[C@@H]3O[C@H]6[C@H]5O4)CC(=O)C[C@@H]3[C@@H](OC)[C@@H](C[C@H](O)CN)O[C@H]3C[C@H]3O[C@@H](CC[C@@H]1O2)C[C@@H](C)C3=C | > 0.253 µM | 0.000836 µM | > 1 µM | 0.0241 µM | 0.0479 µM | > 1 µM | 0.0344 µM |  | > 0.533 µM | 0.161 µM |  | 0.0002 µM |  |  |  |  |  |  | 
COc1cc(OC)cc(Oc2nc3cc(F)c(F)cc3nc2-c2ccccc2)c1 | > 100 µM | > 100 µM |  | > 100 µM | > 100 µM | > 100 µM |  | > 100 µM | > 100 µM | > 100 µM |  |  |  |  |  |  |  |  | 
Cc1ccc(S(=O)(=O)c2c(O)c3ccc(O)c(C)c3oc2=O)cc1 | > 100 µM | > 100 µM | > 100 µM | > 100 µM | > 100 µM | > 100 µM | > 100 µM | > 100 µM |  | > 100 µM |  |  |  |  |  |  |  |  | 
CCOc1snc(C(Cl)(Cl)Cl)c1Cl | > 100 µM | 37.8 µM | > 100 µM | > 100 µM | 38 µM |  | 59.1 µM | 54.5 µM | 42.8 µM | > 100 µM |  |  |  |  |  |  |  |  | 
N#C/C(=C\c1cccc(Br)c1)c1nc2ccccc2c(=O)[nH]1 | > 100 µM |  | > 100 µM | > 100 µM | > 100 µM | > 100 µM | > 100 µM | > 100 µM | > 100 µM | > 100 µM |  |  |  |  |  |  |  |  | 
CC[N+]1(C)CCC(O)(c2ccc(C)cc2)C(C(=O)c2ccc(C)cc2)C1 (stereo unspecified) | > 100 µM | 39.6 µM | 37.5 µM | > 100 µM | 48.1 µM | > 100 µM | 37.3 µM | 44.2 µM |  | > 100 µM |  |  |  |  |  |  |  |  | 
Cc1cccc(NS(=O)(=O)c2ccc(N=Nc3c(O)c(C(=O)O)cc4ccccc34)cc2)n1 | > 100 µM | > 100 µM | > 100 µM |  | > 100 µM | > 100 µM | > 100 µM | > 100 µM |  | > 100 µM |  |  |  |  |  |  |  |  | 
NCCN(CCN(C(=O)Nc1ccccc1)c1ccccc1)C(=O)Nc1ccccc1 | 36.7 µM |  | > 100 µM | 40.1 µM | > 100 µM | > 100 µM | > 100 µM | > 100 µM | 47.6 µM | 42.8 µM |  |  |  |  |  |  |  |  | 
CCCCCCc1cc2cc(-c3csc(-c4ccc(OC)cc4)n3)c(=O)oc2cc1O | 19.1 µM |  | > 100 µM | 33.6 µM | > 100 µM |  | > 100 µM | > 100 µM | 30.4 µM | 41 µM |  |  |  |  |  |  |  |  | 
CCCCCCCCCCCCNC(=O)CCC(NC(=O)c1ccc(N(C)Cc2cnc3nc(N)nc(N)c3n2)cc1)C(=O)NCCCCCCCCCCCC (stereo unspecified) | > 100 µM | > 100 µM | 62.6 µM | > 100 µM | > 100 µM | > 100 µM | > 100 µM | 66.7 µM | 30.7 µM |  |  |  |  |  |  |  |  |  | 
CCCO/N=[N+](\[O-])N(CC)CC | > 100 µM | > 100 µM | > 100 µM |  | > 100 µM |  |  | > 100 µM | > 100 µM | > 100 µM |  |  |  |  |  |  |  |  | 
